Results on two compounds are retold here after patent publication US8754094B2, “Methods for heat shock protein dependent cancer treatment” (The Research Foundation of State University of New York, priority 2007, dated 2014).

Entries after “also recorded” stand apart in the source; their conditions may differ. Residues, ends and D or L forms follow the SMILES beside them. *: point of attachment. Cbz = O=C(OCc1ccccc1)*

What all share (type): cell-based, human
One data set relates to primary MM cells. Nature of the data set: MTS survival assay, primary bone-marrow MM tumor cells from patients. Particulars: FIG. 36C. On the procedure:
Primary bone-marrow tumor cells and endothelial progenitor cells (EPCs) were obtained from previously untreated MM patients. That is, 10 ml bone marrow aspirates were collected in BD Vacutainers containing heparin (BD, Franklin, N.J.), and red cells may be removed from MM bone marrow samples using a Red Blood Cell Lysis Buffer (Roche Applied Science, Indianapolis, Ind.) to obtain primary tumor cells in marrow samples consisting of greater than 80% CD138-positive tumor cells, determined by flow cytometry as may be desired. Tumor cells were used for experiments the day they were harvested, and were cultured in the MM cell line medium described above.
MAL3-101 (the structure is shown as the final product in FIG. 12, in FIG. 13, and in FIG. 25B), the proteasome inhibitor MG-132 (A.G. Scientific, San Diego, Calif.) and the Hsp90 inhibitor 17-allylamino-17-demethoxygeldanamycin (17-AAG) (Calbiochem/EMD Biosciences, San Diego, Calif.) were dissolved in dimethylsulfoxide (DMSO; Sigma-Aldrich, St. Louis, Mo.), and stored at −20° C. Final concentration of DMSO was 0.03% and this was used to treat control cells. The MM cell lines examined were NCI-H929, RPMI-8226, and U266 (ATCC, Manassas, Va.). Normal peripheral blood mononuclear cells (PBMC) and bone marrow (BM) cells were obtained from StemCell Technologies (Vancouver, Canada). […]

For another data set, the system named is BiP. Nature of the data set: Levels of ER lumenal chaperone BiP in NCI-H929. Conditions: NCI-H929, data not shown.
A further data set concerns NCI-H929. As to the kind of experiment: Annexin V / PI flow cytometry apoptosis assay, NCI-H929. Particulars: for induction of apoptosis at 18 h: NCI-H929, 18 h, MAL3-101 10 μM, MG-132 0.1 μM, alone or combined. As to the method:
Each experiment was repeated at least three times. Every experimental condition was repeated at least in triplicate wells for every experiment. For cell death assays, 10^6 MM cells were exposed to media or drug for the indicated incubation periods, washed with 1× phosphate-buffered saline (PBS), pH 7.4 (Invitrogen) and resuspended in 500 μL, binding buffer (Annexin V-PI detection kit (Immunotech/Beckman Coulter, Fullerton, Calif.), containing 1 μL, annexin V-fluorescein isothiocyanate (FITC) stock and 5 μL 20 μg/mL […] (PI) to determinate the phosphatidylserine (PS) exposure on the outer plasma membrane. After incubation for 15 minutes at room temperature in the dark, the specimens were quantified by dual-color flow cytometry, acquiring 10,000 events. Cells that were Annexin V-FITC+(with translocation of phosphatidylserine from the inner to the outer leaflet of the plasma membrane) and PI− (with intact cellular membrane) were considered as early apoptotic cells.
Apoptosis induction in control (DMSO-treated) or inhibitor treated cells was determined using an Annexin-V-FLUOS Staining Kit according to the manufacturer's instructions (Roche, Indianapolis, Ind.). Briefly, cells (1×10^5) were harvested at indicated time points after treatment, and Annexin V-fluorescein isothiocyanate (FITC) and propidium iodide (PI) were added to individual samples and incubated for 30 min in a dark environment. Fluorescence was analyzed by a FACSort flow cytometer (BD Biosciences, San Jose, Calif.) by acquiring 10,000 events per sample.

In a further data set the test system is XBP-1 mRNA splicing. As to the kind of experiment: RT-PCR analysis of XBP-1 mRNA splicing (UPR) in NCI-H929. Conditions: for XBP-1 mRNA splicing at early time points: NCI-H929, early time points (4 h), concentrations that gave synergistic cytotoxicity. On the procedure:
Total RNA was prepared from NCI-H929 and HEK293 cells using TRIzol reagent (Invitrogen, Carlsbad, Calif.) following exposure to MAL3-101, MG-132, and 17-AAG alone and in combination at the indicated time points. Tunicamycin was used at varying concentrations.
Total RNAs were used for the first-strand synthesis with the Superscript reverse transcriptase (Invitrogen, Carlsbad, Calif.). PCR primers (5′-[…]-3′ [Seq. ID No. 1] and 5′-[…]-3′ [Seq. ID No. 2]) encompassing the missing sequences in XPB-1s were used for the PCR amplification with AmpliTaq Gold polymerase (Applied Biosystem, Foster City, Calif.) with a probe set spanning the spliced-out region. PCR products were separated by electrophoresis on a 3% agarose gel (Agarose-1000, Invitrogen) and visualized them by ethidium bromide staining to assess the degree of X-box binding protein-1 unspliced (XBP-1u, ˜280 bp) and spliced (XBP-1s, ˜265 bp) mRNA.
Unspliced (XBP-1u, 285 bp) and spliced (XBP-1s, 259 bp) XBP-1 mRNA levels of treated NCI-H929 were determined by PCR amplification of total RNA that was reverse transcribed by SuperScript Reverse Transcriptase (Invitrogen, Carlsbad, Calif.). PCR primers (5′-[…]-3′ [Seq. ID No. 1] and 5′-[…]-3′ [Seq. ID No. 2]), which flank the 26-nt intron of XBP1 mRNA, were used for PCR amplification with Ex Taq polymerase (Takara Bio, Shiga, Japan).

Turning to `CCCCCCN(C(=O)CCCCCN1C(=O)NC(c2ccc(-c3ccccc3)cc2)C(C(=O)OCc2ccccc2)=C1C)C(C(=O)NCCCC)c1ccc(OCC(=O)OC)c(C(=O)OC)c1` (stereo not shown) [MAL3-101], the “reduction of viability of MM cells extracted from the BM” value in the data set with primary MM cells turned out to be 33±8%. In addition, the “levels of BiP” value in the data set on BiP is “did not change”. In addition, in the data set with NCI-H929 (NCI-H929, 10 μM, FACS), the apoptosis over time entry is on record as “time-dependent increase in apoptosis”. In the data set with NCI-H929, the “induction of apoptosis at 18 h” value was “neither drug alone was effective in inducing apoptosis”. In addition, in the data set with XBP-1 mRNA splicing (NCI-H929, 30 μM, after 24 h of culture), the “XBP-1 mRNA splicing at high concentration” value is on record as “minimal XBP-1 mRNA splicing occurred”. For the same compound, the “XBP-1 mRNA splicing at early time points” value in the data set with XBP-1 mRNA splicing was “there does not appear to be an effect; also recorded: no XBP-1 mRNA splicing was observed”.
Regarding `CC(C)C[C@@H](C=O)NC(=O)[C@H](CC(C)C)NC(=O)[C@H](CC(C)C)NC(=O)OCc1ccccc1` [MG-132, reference compound] (Cbz-Leu-Leu-Leu-aldehyde), the “reduction of viability of MM cells extracted from the BM” value with primary MM cells was found to be 44±10%. Further, the “levels of BiP” value in the data set on BiP was “did not change”. Also, the “induction of apoptosis at 18 h” value in the data set on NCI-H929 was “neither drug alone was effective in inducing apoptosis”. In the data set on XBP-1 mRNA splicing, the “XBP-1 mRNA splicing at early time points” value was “no XBP-1 mRNA splicing was observed”.
